Measured values as given in the Deep4Chem optical property database.

Assay: photoluminescence quantum yield (fraction); solvent given as SMILES
[1] = in O=P(c1ccccc1)(c1ccccc1)c1ccccc1Oc1ccccc1P(=O)(c1ccccc1)c1ccccc1

Q: With `O=C1/C(=C/C=C/c2cc3c4c(c2)CCCN4CCC3)CC/C1=C\C=C\c1cc2c3c(c1)CCCN3CCC2` as the compound, how does the photoluminescence quantum yield (in CC#N) read?
A: 0.037

Q: What about the photoluminescence quantum yield (in CC(C)=O) of the same compound?
A: 0.092

Q: And the photoluminescence quantum yield (in CC(C)O)?
A: 0.07

Q: What about the photoluminescence quantum yield (in CCCCCC) of the same compound?
A: 0.13

Q: What about the photoluminescence quantum yield (in CCCCO) of the same compound?
A: 0.061

Q: What about the photoluminescence quantum yield (in CCCO) of the same compound?
A: 0.042

Q: What about the photoluminescence quantum yield (in CCO) of the same compound?
A: 0.026

Q: And the photoluminescence quantum yield (in CCOC(C)=O)?
A: 0.1

Q: What about the photoluminescence quantum yield (in CCOCC) of the same compound?
A: 0.26

Q: And the photoluminescence quantum yield (in CN(C)C=O)?
A: 0.053

Q: What about the photoluminescence quantum yield (in CO) of the same compound?
A: 0.026

Q: What about the photoluminescence quantum yield (in CS(C)=O) of the same compound?
A: 0.062

Q: What about the photoluminescence quantum yield (in Cc1ccccc1) of the same compound?
A: 0.3

Q: And the photoluminescence quantum yield (in ClCCl)?
A: 0.15

Q: And the photoluminescence quantum yield (in OCC(F)(F)F)?
A: 0.008

Q: And the photoluminescence quantum yield (in S=C=S)?
A: 0.078

Q: And the photoluminescence quantum yield (in c1ccccc1)?
A: 0.3

Q: What about the photoluminescence quantum yield (in c1ccncc1) of the same compound?
A: 0.17

Q: For `F[B-]1(F)OC(C#Cc2ccccc2)=C2CCc3ccccc3C2=[O+]1`, which photoluminescence quantum yield (in ClCCl) is on record?
A: 0.83

Q: With `Fc1c(F)c(-n2c3ccccc3c3ccccc32)c(F)c(F)c1-c1nnc(-c2ccccc2)o1` as the compound, how does the photoluminescence quantum yield (in Cc1ccccc1) read?
A: 0.27

Q: With `CCCCCCC1(CCCCCC)c2cc(-c3ccc(-c4ccc(-c5ccc(-c6ccc7c(c6)C(CCCCCC)(CCCCCC)c6cc(-n8c9ccccc9c9ccccc98)ccc6-7)s5)c5nsnc45)s3)ccc2-c2ccc(-n3c4ccccc4c4ccccc43)cc21` as the compound, how does the photoluminescence quantum yield (in ClCCl) read?
A: 0.39

Q: For `CC(=O)c1c2c(cc3c(N(C)C)cccc13)CCC2`, which photoluminescence quantum yield (in C1CCCCC1) is on record?
A: 0.28

Q: What about the photoluminescence quantum yield (in C1CCOC1) of the same compound?
A: 0.39

Q: What about the photoluminescence quantum yield (in C1COCCO1) of the same compound?
A: 0.44

Q: What about the photoluminescence quantum yield (in CC#N) of the same compound?
A: 0.23

Q: What about the photoluminescence quantum yield (in CCO) of the same compound?
A: 0.01

Q: What about the photoluminescence quantum yield (in CS(C)=O) of the same compound?
A: 0.48

Q: And the photoluminescence quantum yield (in Cc1ccccc1)?
A: 0.47

Q: And the photoluminescence quantum yield (in ClC(Cl)Cl)?
A: 0.4

Q: And the photoluminescence quantum yield (in ClCCl)?
A: 0.6

Q: For `COc1ccc(-n2nc(C#N)c(N3CCCC3)n2)cc1`, which photoluminescence quantum yield (in CC#N) is on record?
A: 0.936

Q: And the photoluminescence quantum yield (in CO)?
A: 0.98

Q: With `Cc1ccc(N2C(c3ccccc3N)=NC(c3ccccc3)C2c2ccccc2)cc1` (centres undefined) as the compound, how does the photoluminescence quantum yield (in Cc1ccccc1) read?
A: 0.009

Q: With `CC1(C)c2cccc(-c3nc(-c4ccccc4)nc(-c4ccccc4)n3)c2Oc2c(-n3c4ccccc4c4ccccc43)cccc21` as the compound, how does the photoluminescence quantum yield (in Cc1ccccc1) read?
A: 0.059

Q: With `c1ccc(-c2cc3cc4cccc5c(-c6ccccc6)cc6cc7cccc2c7c3c6c45)cc1` as the compound, how does the photoluminescence quantum yield (in ClCCl) read?
A: 0.33

Q: With `COc1cccc2cc(-c3ccc([N+](=O)[O-])cc3)c(=O)oc12` as the compound, how does the photoluminescence quantum yield (in C1CCOC1) read?
A: 0.005

Q: And the photoluminescence quantum yield (in CC#N)?
A: 0.0019

Q: What about the photoluminescence quantum yield (in CS(C)=O) of the same compound?
A: 0.0015

Q: And the photoluminescence quantum yield (in ClC(Cl)Cl)?
A: 0.014

Q: Which photoluminescence quantum yield (in ClCCl) does the source give for `CCCCCCCCOc1ccc(C#Cc2ccc3c(c2)c2ccccc2n3CCCCCCCC)c(OCCCCCCCC)c1` here?
A: 0.33

Q: For `CCCC1(CCC)c2cc(-c3cccc(Cc4ccc(/C=C/c5ccccc5)cc4)c3)ccc2-c2ccc(-c3cccc(Cc4ccc(/C=C/c5ccccc5)cc4)c3)cc21`, which photoluminescence quantum yield (in C1CCCCC1) is on record?
A: 0.08

Q: Which photoluminescence quantum yield (in C1CCOC1) does the source give for `COc1cc2c(cc1-c1ccc(C(F)(F)F)cc1)Cc1c3c(c4c(c1-2)-c1cc(OC)c(-c2ccc(C(F)(F)F)cc2)cc1C4)C(=O)N(CCC(C)C)C3=O` here?
A: 0.45

Q: Which photoluminescence quantum yield (in ClCCl) does the source give for `CC(C)(C)NC(=O)c1ccc(-c2cc3ccccc3s2)c2ccc3c4ccccc4c4ccccc4c3c12` here?
A: 0.27

Q: With `CCN(CC)c1ccc2cc(-c3ccc(-c4ccc(-c5cc6ccccc6oc5=O)cc4)cc3)c(=O)oc2c1` as the compound, how does the photoluminescence quantum yield (in ClCCl) read?
A: 0.59

Q: For `CC1(C)c2ccccc2-n2c(-c3ccc(N4c5ccccc5Oc5ccccc54)cc3)nc3cccc1c32`, which photoluminescence quantum yield (in Cc1ccccc1) is on record?
A: 0.31

Q: What about the photoluminescence quantum yield [1] of the same compound?
A: 0.71

Q: Which photoluminescence quantum yield (in O) does the source give for `CC[n+]1nc2ccc(N(C)C)cc2c2cc(C)ccc21` here?
A: 0.003

Q: Which photoluminescence quantum yield (in CCCCO) does the source give for `CN1C(C(=O)Nc2ccccn2)=C([O-])c2sccc2S1(=O)=O` here?
A: 0.0112

Q: What about the photoluminescence quantum yield (in CCCO) of the same compound?
A: 0.0085

Q: What about the photoluminescence quantum yield (in CCO) of the same compound?
A: 0.00451

Q: What about the photoluminescence quantum yield (in CO) of the same compound?
A: 0.00214

Q: Which photoluminescence quantum yield (in ClCCl) does the source give for `CN(C)c1ccc(-c2cc(-c3ccc(N(C)C)cc3)ncn2)cc1` here?
A: 0.72

Q: For `CN(C)c1ccc(C#Cc2cc(C#Cc3ccc(C(F)(F)F)cc3)c3ccc4c(C#Cc5ccc(C(F)(F)F)cc5)cc(C#Cc5ccc(N(C)C)cc5)c5ccc2c3c54)cc1`, which photoluminescence quantum yield (in ClCCl) is on record?
A: 0.42

Q: Which results are given for `CC(C)[Si]1(C(C)C)c2cc(N(C)C)ccc2-c2ccc(C(F)(F)F)cc21`?
A: photoluminescence quantum yield (in C1CCCCC1): 0.37; photoluminescence quantum yield (in CC#N): 0.4; photoluminescence quantum yield (in CCO): 0.28; photoluminescence quantum yield (in CCOCC): 0.35; photoluminescence quantum yield (in CS(C)=O): 0.17; photoluminescence quantum yield (in ClCCl): 0.33; photoluminescence quantum yield (in c1ccccc1): 0.29

Q: Which photoluminescence quantum yield (in CC#N) does the source give for `Oc1ccc2ccccc2c1/C=N/c1cc2ccccc2cc1/N=C/c1c(O)ccc2ccccc12` here?
A: 0.042

Q: Which photoluminescence quantum yield (in C1CCOC1) does the source give for `CN(C)c1ccc(-c2nc3c(c4c2-c2ccccc2CC4)-c2ccccc2CC3)cc1` here?
A: 0.396

Q: And the photoluminescence quantum yield (in CC#N)?
A: 0.182

Q: And the photoluminescence quantum yield (in CCCCCC)?
A: 0.05

Q: And the photoluminescence quantum yield (in CCOC(C)=O)?
A: 0.164

Q: What about the photoluminescence quantum yield (in CO) of the same compound?
A: 0.08

Q: What about the photoluminescence quantum yield (in CS(C)=O) of the same compound?
A: 0.215

Q: What about the photoluminescence quantum yield (in Cc1ccccc1) of the same compound?
A: 0.112

Q: What about the photoluminescence quantum yield (in ClCCl) of the same compound?
A: 0.269

Q: Which photoluminescence quantum yield (in CCO) does the source give for `O=C(Cc1ccccc1)OCc1ccc2c3cccc4cccc(c5cccc1c52)c43` here?
A: 0.92

Q: For `CCCCCCN1C(=O)c2cccc3c(-c4ccc(OC)s4)ccc(c23)C1=O`, which photoluminescence quantum yield (in ClC(Cl)Cl) is on record?
A: 0.65

Q: What does the source list for `Nc1ccc2c3cccc4cccc(c5cccc1c52)c43`?
A: photoluminescence quantum yield (in C1CCCCC1): 0.55; photoluminescence quantum yield (in C1CCOC1): 0.58; photoluminescence quantum yield (in C1COCCO1): 0.28; photoluminescence quantum yield (in CC(C)=O): 0.5; photoluminescence quantum yield (in CCCCOCCCC): 0.24; photoluminescence quantum yield (in CCOC(C)=O): 0.2; photoluminescence quantum yield (in CN(C)C=O): 0.56; photoluminescence quantum yield (in CO): 0.45; photoluminescence quantum yield (in ClCCl): 0.47

Q: Which photoluminescence quantum yield (in ClC(Cl)Cl) does the source give for `CCCCN1C(=O)c2ccc3c4ccc5c6c(ccc(c7ccc(c2c37)C1=O)c64)C(=O)N(CCCC)C5=O` here?
A: 0.98

Q: For `COc1ccc(-n2cccc2)cc1`, which photoluminescence quantum yield (in CC#N) is on record?
A: 0.33

Q: What about the photoluminescence quantum yield (in CCCCCC) of the same compound?
A: 0.26

Q: With `C(=C\c1ncc(-c2ccc(OCc3ccccc3)c(OCc3ccccc3)c2)o1)/c1cccc(N2CCN(c3ccccc3)CC2)c1` as the compound, how does the photoluminescence quantum yield (in ClCCl) read?
A: 0.11

Q: With `C[Si](C)(C)c1ccc(C#N)c2ccccc12` as the compound, how does the photoluminescence quantum yield (in C1CCCCC1) read?
A: 0.66

Q: Which photoluminescence quantum yield (in ClCCl) does the source give for `C(#Cc1ccc2c(c1)c1cc(C#Cc3ccccc3)ccc1n2-c1cc2ccccc2c2ccccc12)c1ccccc1` here?
A: 0.32

Q: With `CC1(C)c2ccccc2N(c2ccc(-c3ncccn3)cc2)c2ccccc21` as the compound, how does the photoluminescence quantum yield (in O=P(c1ccccc1)(c1ccccc1)c1ccc2oc3ccc(P(=O)(c4ccccc4)c4ccccc4)cc3c2c1) read?
A: 0.83

Q: For `COc1cccc(OC)c1-c1c2ccccc2c(-c2c(OC)cccc2OC)c2ccccc12`, which photoluminescence quantum yield (in C1CCCCC1) is on record?
A: 0.94

Q: For `Clc1ccc(/C=C/c2ccncn2)cc1`, which photoluminescence quantum yield (in ClCCl) is on record?
A: 0.01

Q: Which photoluminescence quantum yield (in C1CCOC1) does the source give for `CCc1c(C)c2n(c1C)[B-](F)(F)[N+]1=C(c3ccc[nH]3)c3ccccc3C1=C2` here?
A: 0.71

Q: And the photoluminescence quantum yield (in CC#N)?
A: 0.74

Q: What about the photoluminescence quantum yield (in CCCCCC) of the same compound?
A: 0.82

Q: What about the photoluminescence quantum yield (in CO) of the same compound?
A: 0.65

Q: What about the photoluminescence quantum yield (in Cc1ccccc1) of the same compound?
A: 0.72

Q: What about the photoluminescence quantum yield (in ClCCl) of the same compound?
A: 0.66

Q: Which photoluminescence quantum yield (in ClC(Cl)Cl) does the source give for `CCCCCCCCCCOc1ccc2cc(C3=C4C(=O)N(CC(OCC)OCC)C(c5cc6ccc(OCCCCCCCCCC)cc6o5)=C4C(=O)N3CC(OCC)OCC)oc2c1` here?
A: 0.75

Q: With `CCN(CC)c1ccc(-c2ccc(-c3nc(N4CCOCC4)c4ccccc4n3)s2)cc1` as the compound, how does the photoluminescence quantum yield (in CC#N) read?
A: 0.23

Q: What about the photoluminescence quantum yield (in Cc1ccccc1) of the same compound?
A: 0.67

Q: For `CN(C)c1ccc(-c2nc(-c3ccc(-n4c5ccccc5c5ccccc54)cc3)cc(-c3ccc(-n4c5ccccc5c5ccccc54)cc3)n2)cc1`, which photoluminescence quantum yield (in C1CCOC1) is on record?
A: 0.035

Q: What about the photoluminescence quantum yield (in CN(C)C=O) of the same compound?
A: 0.011

Q: And the photoluminescence quantum yield (in Cc1ccccc1)?
A: 0.07

Q: What about the photoluminescence quantum yield (in ClC(Cl)Cl) of the same compound?
A: 0.07

Q: What does the source list for `N#Cc1cc(C#N)cc(-n2c3ccccc3c3cc(-c4ccc5c(c4)c4ccccc4n5-c4cc(C#N)cc(C#N)c4)ccc32)c1`?
A: photoluminescence quantum yield (in Cc1ccccc1): 0.5; photoluminescence quantum yield [1]: 0.58
